One assay has as its system PDE4. The experiment in a line: PDE4 inhibition, scintillation proximity assay (SPA).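 On PDE4 Inhibitory Activity (concentration for the inhibition rate of 50%): A below 100 nM B 100 to below 1000 nM C 1000 nM or more.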 The note with it: scintillation proximity assay (SPA); evaluated as classes A, B, C; read-out: PDE4 Inhibitory Activity (concentration for the inhibition rate of 50%). Format: biochemical. The method in brief:
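Scintillation proximity read-out: [2,8-3H]-cAMP hydrolysis by PDE4 ran 120 min at room temperature in Tris-HCl pH 7.4 buffer with 8.3 mM MgCl2, 1.7 mM EGTA and 3 mg/mL BSA. Bead-bound product (YSi-SPA with ZnSO4, 15 min) counted; blank lacks enzyme, control has DMSO only.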
(In general: In a scintillation proximity assay essentially only radioactivity close to the scintillant gives light.)
In the case of `CC(C)(O)COC(c1ccc(-c2nccs2)c2oc(N3CC4CC(C3)N4)nc12)C(F)F` (stereo not drawn) [Example 127, 1-(1-(2-(3,6-Diazabicyclo[3.1.1]heptan-3-yl)-7-(thiazol-2-yl)benzo[d]oxazol-4-yl)-2,2-difluoroethoxy)-2-methylpropan-2-ol], the IC50 is < 100 nM.

On to `CC(=O)N(C)c1cc(-c2nccs2)c2oc(N3CC4CCC(C3)N4)nc2c1` [Example 101, N-(2-(3,8-diazabicyclo[3.2.1]octan-3-yl)-7-(thiazol-2-yl)benzo[d]oxazol-5-yl)-N-methylacetamide], for which the IC50 was < 100 nM.

Take `COC(C)(C)c1cc(-c2cscn2)c2oc(N3CC4CC(C3)N4)nc2c1OC(F)(F)F` [Example 287, 2-(3,6-Diazabicyclo[3.1.1]heptan-3-yl)-5-(2-methoxypropan-2-yl)-7-(thiazol-4-yl)-4-(trifluoromethoxy)benzo[d]oxazole]: the IC50 is < 100 nM.

Regarding `COCCOC(c1ccc(-c2nccs2)c2oc(N3CC4CC(C3)N4)nc12)C(F)(F)F` (stereo not drawn) [Example 229, 2-(3,6-Diazabicyclo[3.1.1]heptan-3-yl)-7-(thiazol-2-yl)-4-(2,2,2-trifluoro-1-(2-methoxyethoxy)ethyl)benzo[d]oxazole], the IC50 was < 100 nM.

For `COC(C)c1ccc(-c2nccs2)c2oc(N3CC4CCC(C3)N4)nc12` (stereo not drawn) [Example 242, 2-(3,8-Diazabicyclo[3.2.1]octan-3-yl)-4-(1-methoxyethyl)-7-(thiazol-2-yl)benzo[d]oxazole], the IC50 is < 100 nM.

In the case of `COC(C)(C)c1cc(-c2nccs2)c2oc(N3CC4CC(C3)N4)nc2c1C(F)(F)F` [Example 176, 2-(3,6-Diazabicyclo[3.1.1]heptan-3-yl)-5-(2-methoxypropan-2-yl)-7-(thiazol-2-yl)-4-(trifluoromethyl)benzo[d]oxazole], the IC50 was < 100 nM.

With `CC(C)(O)c1cc(-c2cscn2)c2oc(N3CC4CC(C3)N4)nc2c1OC(F)(F)F` [Example 288, 2-(2-(3,6-Diazabicyclo[3.1.1]heptan-3-yl)-7-(thiazol-4-yl)-4-(trifluoromethoxy)benzo[d]oxazol-5-yl)propan-2-ol], the IC50 is < 100 nM.

With `OC(c1ccc(-c2nccs2)c2oc(N3CC4CC(C3)N4)nc12)C(F)(F)F` (stereo not drawn) [Example 121, 1-(2-(3,6-Diazabicyclo[3.1.1]heptan-3-yl)-7-(thiazol-2-yl)benzo[d]oxazol-4-yl)-2,2,2-trifluoroethan-1-ol], the IC50 was < 100 nM.

For `FC(F)(F)Oc1cc(-c2nccs2)c2oc(N3CC4CCC(C3)N4)nc2c1` [Example 54, 2-(3,8-Diazabicyclo[3.2.1]octan-3-yl)-7-(thiazol-2-yl)-5-(trifluoromethoxy)benzo[d]oxazole], the IC50 was < 100 nM.

With `O=C(c1ccc(-c2nccs2)c2oc(N3CC4CCC(C3)N4)nc12)N1CCOCC1` [Example 116, (2-(3,8-Diazabicyclo[3.2.1]octan-3-yl)-7-(thiazol-2-yl)benzo[d]oxazol-4-yl)(morpholino)methanone], the IC50 was < 100 nM.

Regarding `CC(=O)c1cc(-c2nccs2)c2oc(N3CC4CC(C3)N4)nc2c1C(F)(F)F` [Example 180, 1-(2-(3,6-Diazabicyclo[3.1.1]heptan-3-yl)-7-(thiazol-2-yl)-4-(trifluoromethyl)benzo[d]oxazol-5-yl)ethan-1-one], the IC50 is < 100 nM.

Consider `O=S1(=O)CCC(Oc2ccc(-c3nccs3)c3oc(N4CC5CC(C4)N5)nc23)CC1` [Example 314, 4-((2-(3,6-Diazabicyclo[3.1.1]heptan-3-yl)-7-(thiazol-2-yl)benzo[d]oxazol-4-yl)oxy)tetrahydro-2H-thiopyran 1,1-dioxide], for which the IC50 was < 100 nM.

For `CC(=O)Nc1cc(-c2nccs2)c2oc(N3CC4CCCC(C3)N4)nc2c1` [Example 48, N-(2-(3,9-diazabicyclo[3.3.1]nonan-3-yl)-7-(thiazol-2-yl)benzo[d]oxazol-5-yl)acetamide], the IC50 is < 100 nM.

In the case of `COC(C)c1cc(-c2nccs2)c2oc(N3CC4CC(C3)N4)nc2c1C(F)(F)F` (stereo not drawn) [Example 185, 2-(3,6-Diazabicyclo[3.1.1]heptan-3-yl)-5-(1-methoxyethyl)-7-(thiazol-2-yl)-4-(trifluoromethyl)benzo[d]oxazole], the IC50 was < 100 nM.

Take `CC(C)(O)C1CC(Oc2ccc(-c3nccs3)c3oc(N4CC5CC(C4)N5)nc23)C1` (stereo not drawn) [Example 267, 2-(3-((2-(3,6-Diazabicyclo[3.1.1]heptan-3-yl)-7-(thiazol-2-yl)benzo[d]oxazol-4-yl)oxy)cyclobutyl)propan-2-ol]: the IC50 was < 100 nM.

Regarding `OC(COc1ccc(-c2nccs2)c2oc(N3CC4CC(C3)N4)nc12)C(F)(F)F` (stereo not drawn) [Example 277, 3-((2-(3,6-Diazabicyclo[3.1.1]heptan-3-yl)-7-(thiazol-2-yl)benzo[d]oxazol-4-yl)oxy)-1,1,1-trifluoropropan-2-ol], the IC50 was < 100 nM.

With `FC(F)(F)Oc1c(Cl)cc(-c2ncco2)c2oc(N3CC4CCC(C3)N4)nc12` [Example 9, 2-(3,8-Diazabicyclo[3.2.1]octan-3-yl)-5-chloro-7-(oxazol-2-yl)-4-(trifluoromethoxy)benzo[d]oxazole], the IC50 was < 100 nM.

In the case of `O=C(NCc1ccccc1)c1cc(-c2nccs2)c2oc(N3CC4CCC(C3)N4)nc2c1` [Example 98, N-benzyl-2-(3,8-diazabicyclo[3.2.1]octan-3-yl)-7-(thiazol-2-yl)benzo[d]oxazole-5-carboxamide], the IC50 is < 100 nM.

On to `CC(C)(O)C(F)(F)Oc1ccc(-c2cscn2)c2oc(N3CC4CCC(C3)N4)nc12` [Example 308, 1-((2-(3,8-Diazabicyclo[3.2.1]octan-3-yl)-7-(thiazol-4-yl)benzo[d]oxazol-4-yl)oxy)-1,1-difluoro-2-methylpropan-2-ol], for which the IC50 was < 100 nM.

Consider `COC(C)c1cc(-c2nccs2)c2oc(N3CC4CCC(C3)N4)nc2c1C(F)(F)F` (stereo not drawn) [Example 184, 2-(3,8-Diazabicyclo[3.2.1]octan-3-yl)-5-(1-methoxyethyl)-7-(thiazol-2-yl)-4-(trifluoromethyl)benzo[d]oxazole], for which the IC50 was < 100 nM.

On to `FC(F)(F)COc1cc(-c2nccs2)c2oc(N3CC4CCC(C3)N4)nc2c1` [Example 66, 2-(3,8-Diazabicyclo[3.2.1]octan-3-yl)-7-(thiazol-2-yl)-5-(2,2,2-trifluoroethoxy)benzo[d]oxazole], for which the IC50 was < 100 nM.

Turning to `O=C(c1cc(-c2nccs2)c2oc(N3CC4CCC(C3)N4)nc2c1)N1CCCCC1` [Example 96, (2-(3,8-Diazabicyclo[3.2.1]octan-3-yl)-7-(thiazol-2-yl)benzo[d]oxazol-5-yl)(piperidin-1-yl)methanone], the IC50 is < 100 nM.

With `COCC(O)COc1ccc(-c2nccs2)c2oc(N3CC4CCC(C3)N4)nc12` (stereo not drawn) [Example 83, 1-((2-(3,8-Diazabicyclo[3.2.1]octan-3-yl)-7-(thiazol-2-yl)benzo[d]oxazol-4-yl)oxy)-3-methoxypropan-2-ol], the IC50 is < 100 nM.

Turning to `COc1cc(-c2nccs2)c2oc(N3CC4CCCC(C3)N4)nc2c1` [Example 62, 2-(3,9-Diazabicyclo[3.3.1]nonan-3-yl)-5-methoxy-7-(thiazol-2-yl)benzo[d]oxazole], the IC50 was < 100 nM.

Consider `COC(C)(C)c1cc(-c2nccs2)c2oc(N3CC4CC(C3)N4)nc2c1OC(F)(F)F` [Example 199, 2-(3,6-Diazabicyclo[3.1.1]heptan-3-yl)-5-(2-methoxypropan-2-yl)-7-(thiazol-2-yl)-4-(trifluoromethoxy)benzo[d]oxazole], for which the IC50 is < 100 nM.

Consider `OCC(CO)COc1cc(-c2nccs2)c2oc(N3CC4CCC(C3)N4)nc2c1` [Example 71, 2-(((2-(3,8-Diazabicyclo[3.2.1]octan-3-yl)-7-(thiazol-2-yl)benzo[d]oxazol-5-yl)oxy)methyl)propane-1,3-diol], for which the IC50 is < 100 nM.

As to `CC(=O)c1ccc(-c2nccs2)c2oc(N3CC4CC(C3)N4)nc12` [Example 244, 1-(2-(3,6-Diazabicyclo[3.1.1]heptan-3-yl)-7-(thiazol-2-yl)benzo[d]oxazol-4-yl)ethan-1-one], the IC50 was < 100 nM.

For `COC(c1ccc(-c2nccs2)c2oc(N3CC4CC(C3)N4)nc12)C(F)F` (stereo not drawn) [Example 130, 2-(3,6-Diazabicyclo[3.1.1]heptan-3-yl)-4-(2,2-difluoro-1-methoxyethyl)-7-(thiazol-2-yl)benzo[d]oxazole], the IC50 was < 100 nM.

For the compound `OC(c1cc(-c2nccs2)c2oc(N3CC4CCC(C3)N4)nc2c1)C(F)(F)F` (stereo not drawn) [Example 138, 1-(2-(3,8-Diazabicyclo[3.2.1]octan-3-yl)-7-(thiazol-2-yl)benzo[d]oxazol-5-yl)-2,2,2-trifluoroethan-1-ol], the IC50 was < 100 nM.

`COC(c1cc(-c2nccs2)c2oc(N3CC4CCC(C3)N4)nc2c1)C(F)(F)F` (stereo not drawn) [Example 142, 2-(3,8-Diazabicyclo[3.2.1]octan-3-yl)-7-(thiazol-2-yl)-5-(2,2,2-trifluoro-1-methoxyethyl)benzo[d]oxazole]: the IC50 is < 100 nM.

The same assay, now with this note: scintillation proximity assay; class symbols; read-out: PDE4 Inhibitory Activity.
Turning to `CC(C)(O)C(F)(F)Oc1ccc(-c2nccs2)c2oc(N3CC4CC(C3)N4O)nc12` [Example 371, 3-(4-(1,1-difluoro-2-hydroxy-2-methylpropoxy)-7-(thiazol-2-yl)benzo[d]oxazol-2-yl)-3,6-diazabicyclo [3.1.1]heptan-6-ol], the IC50 is < 100 nM.

Consider `c1csc(-c2ccc(C3CCC3)c3nc(N4CC5CC(C4)N5)oc23)n1` [Example 414, 2-(3,6-diazabicyclo[3.1.1]heptan-3-yl)-4-cyclobutyl-7-(thiazol-2-yl)benzo[d]oxazole], for which the IC50 was < 100 nM.

With `OC(c1ccc(-c2nccs2)c2oc(N3CC4CCC(C3)N4O)nc12)C(F)(F)F` (stereo not drawn) [Example 379, 3-(7-(thiazol-2-yl)-4-(2,2,2-trifluoro-1-hydroxyethyl)benzo[d]oxazol-2-yl)-3,8-diaza-bicyclo[3.2.1] octan-8-ol], the IC50 was < 100 nM.

The record behind these values is patent publication US10669283B2, “Compound and pharmacologically acceptable salt thereof” (MEIJI SEIKA PHARMA CO., LTD., priority 2016, dated 2020).
